Assay results taken from ChEMBL document CHEMBL2169878 (J Med Chem, 2012).
Active and inactive are the calls of the source. The calls are words filed in the database; no cut-off is given here.

What was measured:
[1] = Ratio of drug uptake in blood to plasma in CD1 albino mouse; type: ADME; settings: whole blood and plasma
Heart [2] = experiment: Cardiotoxicity against Sprague-Dawley rat Langendorff perfused heart assessed as heart rate at 0.1 uM by electrophysiological analysis (reference value: 236.68 7.83 bpm); type: toxicity, tissue-based
Heart [3] = experiment: Cardiotoxicity against Sprague-Dawley rat Langendorff perfused heart assessed as heart rate at 10 uM by electrophysiological analysis (reference value: 236.68 7.83 bpm); type: toxicity, tissue-based
Salmonella typhimurium [4] = experiment: Mutagenicity against Salmonella typhimurium TA98 assessed as revertants at 3 uM incubated for 90 mins followed by drug washout measured after 2 days relative to positive control; type: toxicity, organism-based; settings: salmonella enterica subsp. enterica serovar typhimurium, 1.5 h
Salmonella typhimurium [5] = experiment: Mutagenicity against Salmonella typhimurium TA98 assessed as revertants at 6 uM incubated for 90 mins followed by drug washout measured after 2 days relative to positive control; type: toxicity, organism-based; settings: salmonella enterica subsp. enterica serovar typhimurium, 1.5 h
Salmonella typhimurium [6] = experiment: Mutagenicity against Salmonella typhimurium TA98 assessed as revertants at 12 uM incubated for 90 mins followed by drug washout measured after 2 days relative to positive control; type: toxicity, organism-based; settings: salmonella enterica subsp. enterica serovar typhimurium
Salmonella typhimurium [7] = experiment: Mutagenicity against Salmonella typhimurium TA98 assessed as revertants at 24 uM incubated for 90 mins followed by drug washout measured after 2 days relative to positive control; type: toxicity, organism-based; settings: salmonella enterica subsp. enterica serovar typhimurium, 1.5 h
Salmonella typhimurium [8] = experiment: Mutagenicity against Salmonella typhimurium TA98 assessed as revertants at 48 uM incubated for 90 mins followed by drug washout measured after 2 days relative to positive control; type: toxicity, organism-based; settings: salmonella enterica subsp. enterica serovar typhimurium, 1.5 h
Salmonella typhimurium [9] = experiment: Mutagenicity against Salmonella typhimurium TA100 assessed as revertants at 3 uM incubated for 90 mins followed by drug washout measured after 2 days relative to positive control; type: toxicity, organism-based; settings: salmonella enterica subsp. enterica serovar typhimurium, 1.5 h
Salmonella typhimurium [10] = experiment: Mutagenicity against Salmonella typhimurium TA100 assessed as revertants at 6 uM incubated for 90 mins followed by drug washout measured after 2 days relative to positive control; type: toxicity, organism-based; settings: salmonella enterica subsp. enterica serovar typhimurium, 1.5 h
Salmonella typhimurium [11] = experiment: Mutagenicity against Salmonella typhimurium TA100 assessed as revertants at 12 uM incubated for 90 mins followed by drug washout measured after 2 days relative to positive control; type: toxicity, organism-based; settings: salmonella enterica subsp. enterica serovar typhimurium
Heart [12] = experiment: Cardiotoxicity against Sprague-Dawley rat Langendorff perfused heart assessed as PQ prolongation-induced atrioventricular block at 30 uM by electrophysiological analysis; type: toxicity, tissue-based
Heart [13] = experiment: Cardiotoxicity against Sprague-Dawley rat Langendorff perfused heart assessed as QTc time interval at 30 uM by electrophysiological analysis (reference value: 145.78 10.53 ms); type: toxicity, tissue-based
Heart [14] = experiment: Cardiotoxicity against Sprague-Dawley rat Langendorff perfused heart assessed as QTc time interval at 1 uM by electrophysiological analysis (reference value: 145.78 10.53 ms); type: toxicity, tissue-based
Heart [15] = experiment: Cardiotoxicity against Sprague-Dawley rat Langendorff perfused heart assessed as QTc time interval at 10 uM by electrophysiological analysis (reference value: 145.78 10.53 ms); type: toxicity, tissue-based
Heart [16] = experiment: Cardiotoxicity against Sprague-Dawley rat Langendorff perfused heart assessed as QTc time interval at 0.1 uM by electrophysiological analysis (reference value: 145.78 10.53 ms); type: toxicity, tissue-based
Heart [17] = experiment: Cardiotoxicity against Sprague-Dawley rat Langendorff perfused heart assessed as QT time interval at 30 uM by electrophysiological analysis (reference value: 73.01 4.52 ms); type: toxicity, tissue-based
Heart [18] = experiment: Cardiotoxicity against Sprague-Dawley rat Langendorff perfused heart assessed as atrioventricular conduction time at 30 uM by electrophysiological analysis (reference value: 42.67 2.29 ms); type: toxicity, tissue-based
Heart [19] = experiment: Cardiotoxicity against Sprague-Dawley rat Langendorff perfused heart assessed as intraventricular conduction time at 0.1 uM by electrophysiological analysis (reference value: 13.92 0.42 ms); type: toxicity, tissue-based
Heart [20] = experiment: Cardiotoxicity against Sprague-Dawley rat Langendorff perfused heart assessed as atrioventricular conduction time at 10 uM by electrophysiological analysis (reference value: 42.67 2.29 ms); type: toxicity, tissue-based
Heart [21] = experiment: Cardiotoxicity against Sprague-Dawley rat Langendorff perfused heart assessed as atrioventricular conduction time at 1 uM by electrophysiological analysis (reference value: 42.67 2.29 ms); type: toxicity, tissue-based
Heart [22] = experiment: Cardiotoxicity against Sprague-Dawley rat Langendorff perfused heart assessed as atrioventricular conduction time at 0.1 uM by electrophysiological analysis (reference value: 42.67 2.29 ms); type: toxicity, tissue-based
Heart [23] = experiment: Cardiotoxicity against Sprague-Dawley rat Langendorff perfused heart assessed as cycle length time at 0.1 uM by electrophysiological analysis (reference value: 258.62 8.87 ms); type: toxicity, tissue-based
Plasmodium falciparum [24] = experiment: Antiplasmodial activity against chloroquine-resistant Plasmodium falciparum W2 infected in human RBC after 72 hrs by parasite lactate dehydrogenase assay; type: functional, organism-based; settings: W2, 72 h
Plasmodium falciparum [25] = experiment: Antiplasmodial activity against chloroquine-sensitive Plasmodium falciparum NF54 infected in human erythrocytes assessed as inhibition of [3H]hypoxanthine incorporation incubated for 48 hrs prior to [3H]hypoxanthine addition measured after 48 hrs by liquid scintillation counting; type: functional, organism-based
Plasmodium falciparum [26] = experiment: Antiplasmodial activity against chloroquine-resistant Plasmodium falciparum K1 infected in human erythrocytes assessed as inhibition of [3H]hypoxanthine incorporation incubated for 48 hrs prior to [3H]hypoxanthine addition measured after 48 hrs by liquid scintillation counting; type: functional, organism-based
Plasmodium falciparum [27] = experiment: Resistance ratio of IC50 for chloroquine-resistant Plasmodium falciparum W2 to IC50 for chloroquine-sensitive Plasmodium falciparum D10; type: functional
Plasmodium falciparum [28] = experiment: Resistance ratio of IC50 for chloroquine-resistant Plasmodium falciparum K1 to IC50 for chloroquine-sensitive Plasmodium falciparum NF54; type: functional
Plasmodium berghei [29] = experiment: Antimalarial activity against Plasmodium berghei ANKA expressing GFP infected in mouse assessed as reduction in parasitemia at 30 mg/kg, po administered 24 hrs post-infection measured 48 hrs post-dosing by flow cytometric analysis; type: functional; design: scale not given: the % may be the effect or the level left
Plasmodium berghei [30] = experiment: Antimalarial activity against Plasmodium berghei ANKA expressing GFP infected in mouse assessed as reduction in parasitemia at 30 mg/kg, po administered QD for 3 days measured 24 hrs post-final dosing by flow cytometric analysis; type: functional; design: scale not given: the % may be the effect or the level left
Plasmodium berghei [31] = experiment: Antimalarial activity against Plasmodium berghei ANKA expressing GFP infected in mouse assessed as reduction in parasitemia at 30 mg/kg, po administered at 6,24,48 and 72 hrs post-infection measured 24 hrs post-final dosing by flow cytometric analysis; type: functional; design: scale not given: the % may be the effect or the level left
Plasmodium berghei [32] = experiment: Antimalarial activity against Plasmodium berghei ANKA expressing GFP infected in mouse assessed as mean survival days at 30 mg/kg, po administered at 6,[…],[…] and 72 hrs post-infection (reference value: 6 to 7 days); type: functional
Plasmodium berghei [33] = experiment: Antimalarial activity against Plasmodium berghei ANKA expressing GFP infected in mouse assessed as cure from infection at 100 mg/kg, po administered 24 hrs post-infection measured on day 30; type: functional, organism-based; design: dose 100 mg/kg
Plasmodium berghei [34] = experiment: Antimalarial activity against Plasmodium berghei ANKA expressing GFP infected in mouse assessed as cure from infection at 50 mg/kg, po administered QD for 3 days measured on day 30; type: functional, organism-based; design: dose 50 mg/kg
Plasmodium berghei [35] = experiment: Antimalarial activity against Plasmodium berghei ANKA expressing GFP infected in mouse assessed as cure from infection at 30 mg/kg, po administered QD for 3 days measured on day 30; type: functional, organism-based; design: dose 30 mg/kg
[36] = target: Chloroquine resistance transporter (Plasmodium falciparum, UniProt Q9N623); experiment: Inhibition of chloroquine-resistant Plasmodium falciparum Dd2 CRT expressed in Xenopus laevis oocyte assessed as inhibition of [3H]chloroquine uptake measured from 1 to 2 hrs
Chain of Chloroquine resistance transporter (Q9N623 whole entry, looked up): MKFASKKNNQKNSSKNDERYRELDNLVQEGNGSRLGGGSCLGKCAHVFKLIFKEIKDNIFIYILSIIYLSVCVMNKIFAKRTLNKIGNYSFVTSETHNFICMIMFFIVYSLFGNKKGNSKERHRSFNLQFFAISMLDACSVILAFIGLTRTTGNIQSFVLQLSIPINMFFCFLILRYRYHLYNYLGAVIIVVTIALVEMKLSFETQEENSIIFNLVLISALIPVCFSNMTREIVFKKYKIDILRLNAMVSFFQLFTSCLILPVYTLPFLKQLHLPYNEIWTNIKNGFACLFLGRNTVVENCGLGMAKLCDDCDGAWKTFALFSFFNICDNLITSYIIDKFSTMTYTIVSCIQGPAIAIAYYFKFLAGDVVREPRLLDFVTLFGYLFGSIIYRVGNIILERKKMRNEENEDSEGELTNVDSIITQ

SMILES: Clc1ccc(C(Nc2ccnc3cc(Cl)ccc23)c2ccc(CN3CCNCC3)cc2)cc1 (racemic)
- blood plasma ratio [1]: 1.9
- Activity (Heart [2]): 235.08 bpm
- Activity (Heart [3]): 216.05 bpm
- Activity (Salmonella typhimurium [4]): 4%
- Activity (Salmonella typhimurium [5]): 6%
- Activity (Salmonella typhimurium [6]): 4%
- Activity (Salmonella typhimurium [7]): 4%
- Activity (Salmonella typhimurium [8]): 4%
- Activity (Salmonella typhimurium [9]): 22%
- Activity (Salmonella typhimurium [10]): 13%
- Activity (Salmonella typhimurium [11]): 17%
- Activity (Heart [12]): Toxic
- Time (Heart [13]): 168.83 ms
- Time (Heart [14]): 151.17 ms
- Time (Heart [15]): 177.33 ms
- Time (Heart [16]): 145.15 ms
- Time (Heart [17]): 94.33 ms
- Time (Heart [18]): 75.67 ms
- Time (Heart [19]): 14 ms
- Time (Heart [20]): 50.56 ms
- Time (Heart [21]): 42.38 ms
- Time (Heart [22]): 42.53 ms
- Time (Heart [23]): 256.97 ms
- IC50 (Plasmodium falciparum [24]): 58 nM
- IC50 (Plasmodium falciparum [25]): 17 nM
- IC50 (Plasmodium falciparum [26]): 22 nM
- Ratio IC50 (Plasmodium falciparum [27]): 0.93
- Ratio IC50 (Plasmodium falciparum [28]): 1.3
- Activity (Plasmodium berghei [29]): 99.7%
- Activity (Plasmodium berghei [30]): 99.8%
- Activity (Plasmodium berghei [31]): 99.8%
- MSD (Plasmodium berghei [32]): 30 days
- Activity (Plasmodium berghei [33]): inactive
- Activity (Plasmodium berghei [34]): Active
- Activity (Plasmodium berghei [35]): inactive
- IC50 [36]: 10.3 µM
